Laboratory results: PubChem BioAssay (NCI)
“And” between values parts separate entries of the source, which are not always exact repeats. Equal values may be shown once.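 Briefly, cells in 96-well plates were exposed to five compound concentrations for 48 h, and endpoints were estimated by linear interpolation. GI50: concentration for 50% inhibition of growth. Definition used: TGI = concentration required for complete inhibition of growth.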

Assays:
Assay in all cases: NCI-60 cell line screen, 48 h
OVCAR-3 ovarian = system: OVCAR-3 ovarian
SF-295 CNS = system: SF-295 CNS
NCI-H460 lung = system: NCI-H460 lung
CAKI-1 renal = system: CAKI-1 renal
SN12C renal = system: SN12C renal
IGROV1 ovarian = system: IGROV1 ovarian
OVCAR-4 ovarian = system: OVCAR-4 ovarian
786-0 renal = system: 786-0 renal
UACC-62 melanoma = system: UACC-62 melanoma
NCI-H226 lung = system: NCI-H226 lung

Row | SMILES | GI50 (OVCAR-3 ovarian) | TGI (OVCAR-3 ovarian) | GI50 (SF-295 CNS) [µM] | TGI (SF-295 CNS) [µM] | GI50 (NCI-H460 lung) | TGI (NCI-H460 lung) | GI50 (CAKI-1 renal) [µM] | TGI (CAKI-1 renal) [µM] | TGI (SN12C renal) [µM] | GI50 (IGROV1 ovarian) | TGI (IGROV1 ovarian) | GI50 (OVCAR-4 ovarian) [µM] | TGI (OVCAR-4 ovarian) | TGI (786-0 renal) [µM] | TGI (UACC-62 melanoma) | GI50 (NCI-H226 lung) [µM] | TGI (NCI-H226 lung) [µM] | GI50 (SN12C renal) [µM] | GI50 (786-0 renal) [µM] | GI50 (UACC-62 melanoma) [µM]
1 | COc1cc(Cc2nccc3cc(OC)c(OC)cc23)c(C(C)=O)cc1OC | 86 µM and 27.7 µM | 300 µM and 203 µM | 224 | > 750 | 52.9 µM and 85.5 µM and 340 µM | 300 µM and > 750 µM | > 750 | > 750 | 30 | 51.4 µM and 92.7 µM | 300 µM and 440 µM | 13.2 | 52.3 µM and 197 µM | > 750 | 219 µM and > 750 µM |  |  |  |  | 
2 | COc1ccc(C(=O)c2cc(C)c(OC)c(C)c2)c(OC)c1O | 0.0374 µM |  | 0.0396 | > 100 | 0.0713 µM | 1.35 µM | 0.185 | > 100 | > 100 | 0.672 µM | > 100 µM | 0.415 | > 100 µM | > 100 | > 100 µM | 2.71 | 9.06 | 0.0786 | 0.667 | 0.638
3 | S=c1ssc(N2CCOCC2)c1Cl | 39.3 µM | > 100 µM | 25.8 | > 100 | 21.5 µM | 67 µM | > 100 | > 100 | > 100 |  |  | > 100 | > 100 µM | > 100 | > 100 µM | > 100 | > 100 | 72.7 | > 100 | 26.5
4 | COc1ccc(CN2CC(C)(C)C2=O)c(OC)c1 |  | > 100 µM |  | > 100 |  | > 100 µM |  |  | > 100 |  | > 100 µM |  | > 100 µM | > 100 | > 100 µM |  | > 100 |  |  | 
5 | Cc1cc2nc(C=C(C(F)(F)F)C(F)(F)F)oc2cc1C |  | 4.35 µM |  | > 10 |  | > 10 µM |  | 7.23 | 5.1 |  | 8.08 µM |  | 7.78 µM | 3.38 | > 10 µM |  |  |  |  | 
6 | O=C(Nc1cc(Cl)c(Cl)cc1Cl)C(=O)C1C(=O)NC(=S)NC1=O |  |  |  | > 100 |  | > 100 µM |  | > 100 | > 100 |  | > 100 µM |  | > 100 µM | > 100 | > 100 µM |  | > 100 |  |  | 
7 | COC(=O)C(Cc1nc2ccccc2[nH]c1=O)C(NO)C(=O)Nc1c(Cl)cc([N+](=O)[O-])cc1Cl (configuration not stated) |  | > 100 µM |  | > 100 |  | 44.7 µM |  | > 100 | > 100 |  | > 100 µM |  | > 100 µM | > 100 | 34.5 µM |  |  |  |  | 
8 | Cc1nnc(NS(=O)(=O)c2ccc(N=Nc3cc(N=Nc4ccc(S(=O)(=O)Nc5nnc(C)s5)cc4)c4c(NC(=O)C(Cl)Cl)cccc4c3OC(=O)C(Cl)Cl)cc2)s1 (tested in a mixture with another compound) |  | 55.2 µM |  | > 100 |  | > 100 µM |  | > 100 | > 100 |  | 97.5 µM |  | 39 µM | > 100 | 89.1 µM |  |  |  |  | 
9 | O=C(N/N=C/c1cc(Br)ccc1O)N/N=C/c1cc(Br)ccc1O |  |  |  | > 100 |  | > 100 µM |  | > 100 | > 100 |  |  |  | > 100 µM | > 100 |  |  | 9.64 |  |  | 
10 | COc1ccc(-c2nc3ccccn3c2/C=C/C(=O)c2cc(OC)c(OC)c(OC)c2)cc1OC | 2.47 µM | 8.56 µM | 1.85 | 4.42 | 2.99 µM | 12.6 µM | 1.39 | 20.2 | 83.7 | 3.03 µM | 12.1 µM |  |  | 71 | 22.1 µM | 6.1 | 40.6 | 4.1 | 3.74 | 4.86
11 | c1ccc(C2N3CCCCC3[C@@H]3c4[nH]c5ccccc5c4CCN23)nc1 (some centres not stated) |  | > 100 µM |  | > 100 |  | > 100 µM |  | > 100 | > 100 |  | > 100 µM |  | > 100 µM | > 100 | > 100 µM |  |  |  |  | 
12 | CC1(C)C(=O)/C(=C\c2cccnc2)C[C@]2(C)[C@H]3CC[C@@H]4[C@H]5[C@H](C(=O)/C=C/c6cccnc6)CC[C@]5(C(=O)O)CC[C@@]4(C)[C@]3(C)CC[C@@H]12 | 1.76 µM | 3.42 µM | 2.22 | 5.59 | 2.12 µM | 6.69 µM | 1.66 | 3.38 | 9.76 |  |  | 4.37 | > 100 µM | 5.41 | 4.02 µM |  |  | 2.79 | 2.36 | 2.03
13 | [N-]=[N+]=C1C(=O)NN=C1c1ccccc1 |  | > 100 µM |  | > 100 |  | > 100 µM |  | > 100 | > 100 |  | > 100 µM |  | > 100 µM | > 100 |  |  | > 100 |  |  | 
14 | Cc1cc(N(CCC#N)CCC#N)ccc1/C=C(\NC(=O)/C=C/c1ccccc1)C(N)=O |  | > 100 µM |  | > 100 |  | > 100 µM |  | > 100 | > 100 |  | > 100 µM |  |  | > 100 | > 100 µM |  | > 100 |  |  | 
15 | O=C1c2ccccc2C(=O)C1(O)c1c[nH]c2ccccc12 |  | > 100 µM |  | > 100 |  | > 100 µM |  | > 100 |  |  | > 100 µM |  | > 100 µM | > 100 | > 100 µM |  |  |  |  | 
16 | C=C(C)CCN[Si](c1ccccc1)(c1ccccc1)C(C)(C)C |  | 32 µM |  | 36.4 |  | > 100 µM |  |  | 32.7 |  | 72 µM |  | 44.4 µM | 33.5 | 31.9 µM |  | 25.5 |  |  | 
17 | COC(=O)C(CC(=O)Nc1ccc(C)cc1)C(=O)C(=O)Nc1c(C(C)C)cccc1C(C)C (configuration not stated) |  |  |  |  |  | > 100 µM |  | > 100 | > 100 |  | > 100 µM |  | > 100 µM | > 100 | > 100 µM |  | > 100 |  |  | 
18 | OCC1OC(n2cnc3c2NC=NC[C@H]3O)C(Cl)C1O (some centres not stated) |  | > 100 µM |  | > 100 |  | > 100 µM |  | > 100 | > 100 |  | > 100 µM |  | > 100 µM | > 100 | > 100 µM |  |  |  |  | 
19 | CC12OC(C(=O)C13CC3)C1C(=O)c3ccc4c(ccc5ccccc54)c3C(=O)C12 (configuration not stated) |  |  |  |  | 15.6 µM | 55.6 µM | 19.7 | 41.8 |  | 28.9 µM | > 100 µM |  |  | > 100 |  |  |  |  | 25.3 | 
